Measurements reported in publication PMC4503722, “Novel Phenotypic Outcomes Identified for a Public Collection of Approved Drugs from a Publicly Accessible Panel of Assays” (PLoS ONE, 2015).

Assays:
DLD-1 = assay: cells; format: cell-based; conditions: for Basal_Viability ATP DLD-1 IC50/EC50 / IC50: assay number 23; for IC50: read-out: Basal_Viability ATP DLD-1 summarized IC50
[1] = tested on: endothelial tube formation in co-cultures of ECFCs and ADSCs treated with VEGF; assay: cells; format: cell-based, human; conditions: for IC50: read-out: VEGF_ADSC\ECFC Angio CD31 TubeArea summarized IC50
HT-29 = assay: cells; format: cell-based; conditions: for Basal_Viability ATP HT-29 IC50/EC50 / IC50: assay number 28; for IC50: read-out: Basal_Viability ATP HT-29 summarized IC50
Colo320 = assay: cells; format: cell-based; conditions: for Basal_Viability ATP Colo 320 IC50/EC50 / IC50: assay number 27; for IC50: read-out: Basal_Viability ATP Colo 320 summarized IC50
SNU-C1 = assay: cells; format: cell-based; conditions: for Basal_Viability ATP SNU-C1 IC50/EC50 / IC50: assay number 30; for IC50: read-out: Basal_Viability ATP SNU-C1 summarized IC50
SW480 = assay: cells; format: cell-based; conditions: for Basal_Viability ATP SW480 IC50/EC50 / IC50: assay number 24; for IC50: read-out: Basal_Viability ATP SW480 summarized IC50
[2] = tested on: ECFC/ADSC co-culture cell nuclei number; conditions: for IC50: read-out: VEGF_ADSC\ECFC Angio Hoechst NucArea summarized IC50
RKO = assay: cells; format: cell-based; conditions: for Basal_Viability ATP RKO IC50/EC50 / IC50: assay number 29; for IC50: read-out: Basal_Viability ATP RKO summarized IC50
HCT116 = assay: cells; format: cell-based; conditions: basal; for Basal_Viability ATP HCT116 IC50/EC50 / IC50: assay number 25; for IC50: read-out: Basal_Viability ATP HCT116 summarized IC50
[3] = tested on: HCT116 cells treated with a GSK3β inhibitor; assay: cells; format: cell-based; conditions: for GSK3b inh pretreated_Viability ATP HCT116 IC50/EC50 / IC50: assay number 26, GSK3b inhibitor pretreated; for IC50/EC50, GSK3b inh pretreated_Viability ATP HCT116 (assay number 26): GSK3b inh pretreated; for IC50: read-out: GSK3b inh pretreated_Viability ATP HCT116 summarized IC50

CC(C)(CO)[C@@H](O)C(=O)NCCC(=O)NCCSSCCNC(=O)CCNC(=O)[C@H](O)C(C)(C)CO [NCGC00181028-02]
Basal_Viability ATP DLD-1 IC50/EC50 (DLD-1; concentration response): > 20 µM
VEGF_ADSC\ECFC Angio CD31 TubeArea IC50/EC50 [1]: > 10 µM
Basal_Viability ATP HT-29 IC50/EC50 (HT-29; concentration response): > 20 µM
Basal_Viability ATP Colo 320 IC50/EC50 (Colo320; concentration response): > 20 µM
Basal_Viability ATP SNU-C1 IC50/EC50 (SNU-C1; concentration response): > 20 µM
Basal_Viability ATP SW480 IC50/EC50 (SW480; concentration response): > 20 µM
VEGF_ADSC\ECFC Angio Hoechst NucArea IC50/EC50 [2]: > 10 µM
Basal_Viability ATP RKO IC50/EC50 (RKO; concentration response): > 20 µM
Basal_Viability ATP HCT116 IC50/EC50 (HCT116; concentration response): > 20 µM
GSK3b inh pretreated_Viability ATP HCT116 IC50/EC50 ([3]; concentration response): > 20 µM

CCCCCCOC(=O)c1cccnc1 [NCGC00160591-02]
Basal_Viability ATP DLD-1 IC50/EC50 (DLD-1; concentration response): > 20 µM
VEGF_ADSC\ECFC Angio CD31 TubeArea IC50/EC50 [1]: > 10 µM
Basal_Viability ATP HT-29 IC50/EC50 (HT-29; concentration response): > 20 µM
Basal_Viability ATP Colo 320 IC50/EC50 (Colo320; concentration response): > 20 µM
Basal_Viability ATP SNU-C1 IC50/EC50 (SNU-C1; concentration response): > 20 µM
Basal_Viability ATP SW480 IC50/EC50 (SW480; concentration response): > 20 µM
VEGF_ADSC\ECFC Angio Hoechst NucArea IC50/EC50 [2]: > 10 µM
Basal_Viability ATP RKO IC50/EC50 (RKO; concentration response): > 20 µM
Basal_Viability ATP HCT116 IC50/EC50 (HCT116; concentration response): > 20 µM
GSK3b inh pretreated_Viability ATP HCT116 IC50/EC50 ([3]; concentration response): > 20 µM

CC(C)[C@@H]1CC[C@@H](C)C[C@H]1OC(=O)c1ccccc1O [NCGC00181042-02]
Basal_Viability ATP DLD-1 IC50/EC50 (DLD-1; concentration response): > 20 µM
VEGF_ADSC\ECFC Angio CD31 TubeArea IC50/EC50 [1]: > 10 µM
Basal_Viability ATP HT-29 IC50/EC50 (HT-29; concentration response): > 20 µM
Basal_Viability ATP Colo 320 IC50/EC50 (Colo320; concentration response): > 20 µM
Basal_Viability ATP SNU-C1 IC50/EC50 (SNU-C1; concentration response): > 20 µM
Basal_Viability ATP SW480 IC50/EC50 (SW480; concentration response): > 20 µM
VEGF_ADSC\ECFC Angio Hoechst NucArea IC50/EC50 [2]: > 10 µM
Basal_Viability ATP RKO IC50/EC50 (RKO; concentration response): > 20 µM
Basal_Viability ATP HCT116 IC50/EC50 (HCT116; concentration response): > 20 µM
GSK3b inh pretreated_Viability ATP HCT116 IC50/EC50 ([3]; concentration response): > 20 µM

O=C(CCCN1CCC(O)(c2cccc(C(F)(F)F)c2)CC1)c1ccc(F)cc1 [NCGC00015983-04]
Basal_Viability ATP DLD-1 IC50/EC50 (DLD-1; basal): > 20 µM
VEGF_ADSC\ECFC Angio CD31 TubeArea IC50/EC50 [1]: > 10 µM
Basal_Viability ATP HT-29 IC50/EC50 (HT-29; basal): > 20 µM
Basal_Viability ATP Colo 320 IC50/EC50 (Colo320; basal): > 20 µM
Basal_Viability ATP SNU-C1 IC50/EC50 (SNU-C1; basal): > 20 µM
Basal_Viability ATP SW480 IC50/EC50 (SW480; basal): > 20 µM
VEGF_ADSC\ECFC Angio Hoechst NucArea IC50/EC50 [2]: > 10 µM
Basal_Viability ATP RKO IC50/EC50 (RKO; basal): > 20 µM
Basal_Viability ATP HCT116 IC50/EC50 (HCT116): > 20 µM
GSK3b inh pretreated_Viability ATP HCT116 IC50/EC50 [3]: > 20 µM

NC(=O)n1c(O)c(C(=O)c2cccs2)c2cc(Cl)ccc21 [NCGC00263542-01]
IC50/EC50, Basal_Viability ATP DLD-1 (assay number 23) (DLD-1; basal): 6.9467 µM
IC50/EC50, VEGF_ADSC\ECFC Angio CD31 TubeArea (assay number 2) [1]: > 10 µM
IC50/EC50, Basal_Viability ATP HT-29 (assay number 28) (HT-29; basal): 5.6005 µM
IC50/EC50, Basal_Viability ATP Colo 320 (assay number 27) (Colo320; basal): 1.643 µM
IC50/EC50, Basal_Viability ATP SNU-C1 (assay number 30) (SNU-C1; basal): 0.5375 µM
IC50/EC50, Basal_Viability ATP SW480 (assay number 24) (SW480; basal): 1.02 µM
IC50/EC50, VEGF_ADSC\ECFC Angio Hoechst NucArea (assay number 3) [2]: > 10 µM
IC50/EC50, Basal_Viability ATP RKO (assay number 29) (RKO; basal): 4.703 µM
IC50/EC50, Basal_Viability ATP HCT116 (assay number 25) (HCT116): 2.309 µM
IC50/EC50, GSK3b inh pretreated_Viability ATP HCT116 (assay number 26) [3]: 3.787 µM

CCCCCCCCCCCCCCCC(=O)OC/C=C(C)/C=C/C=C(C)/C=C/C1=C(C)CCCC1(C)C [NCGC00095056-04]
IC50 (DLD-1; basal): > 20 µM
IC50 [1]: > 10 µM
IC50 (HT-29; basal): > 20 µM
IC50 (Colo320; basal): > 20 µM
IC50 (SNU-C1; basal): > 20 µM
IC50 (SW480; basal): > 20 µM
IC50 [2]: > 10 µM
IC50 (RKO; basal): > 20 µM
IC50 (HCT116): > 20 µM
IC50 [3]: > 20 µM

CNS(=O)(=O)CCc1ccc2[nH]cc(C3CCN(C)CC3)c2c1.Cl [NCGC00181786-02]
IC50/EC50, Basal_Viability ATP DLD-1 (assay number 23) (DLD-1; basal): > 20 µM
IC50/EC50, VEGF_ADSC\ECFC Angio CD31 TubeArea (assay number 2) [1]: > 10 µM
IC50/EC50, Basal_Viability ATP HT-29 (assay number 28) (HT-29; basal): > 20 µM
IC50/EC50, Basal_Viability ATP Colo 320 (assay number 27) (Colo320; basal): > 20 µM
IC50/EC50, Basal_Viability ATP SNU-C1 (assay number 30) (SNU-C1; basal): > 20 µM
IC50/EC50, Basal_Viability ATP SW480 (assay number 24) (SW480; basal): > 20 µM
IC50/EC50, VEGF_ADSC\ECFC Angio Hoechst NucArea (assay number 3) [2]: > 10 µM
IC50/EC50, Basal_Viability ATP RKO (assay number 29) (RKO; basal): > 20 µM
IC50/EC50, Basal_Viability ATP HCT116 (assay number 25) (HCT116): > 20 µM
IC50/EC50, GSK3b inh pretreated_Viability ATP HCT116 (assay number 26) [3]: 12.1308 µM

CCCCC(CC)COC(=O)CC(C(=O)OCC(CC)CCCC)S(=O)(=O)O (centres unmarked) [NCGC00164140-07]
IC50 (DLD-1; basal): > 20 µM
IC50 [1]: > 10 µM
IC50 (HT-29; basal): > 20 µM
IC50 (Colo320; basal): > 20 µM
IC50 (SNU-C1; basal): > 20 µM
IC50 (SW480; basal): > 20 µM
IC50 [2]: > 10 µM
IC50 (RKO; basal): > 20 µM
IC50 (HCT116): > 20 µM
IC50 [3]: 16.6 µM
